Test results published in US6489351B1, “Condensed 4,5,6,7-tetrahydrobenzo[C]thiophenes as enhancer for cell differentation induction factor action” (Takeda Chemical Industries, Ltd., priority 1996, dated 2002).

Experiments:
[1] = test system: Mouse-derived osteoblast strain MC3T3-E1; experiment: Alkaline phosphatase production induction capability in mouse osteoblast strain; type: cell-based; conditions: compound 10^−5 M, 72 hours, mean±S.E.; for Alkaline Phosphate Activity (A405 × 1,000), BMP Added (3 ng/ml): 3 ng/ml BMP-4/7 heterodimer, control 397 ± 30 (Experiment 4), 420 ± 1 (Experiment 5); for Alkaline Phosphate Activity (A405 × 1,000), BMP Not Added: no BMP, control 135 ± 2 (Experiment 4), 141 ± 8 (Experiment 5)
Protocol: Mouse-derived osteoblast strain MC3T3-E1 in α-MEM containing 10% fetal calf serum (FCS) was seeded to 96-well plates (8,000 cells/well); two days later, the sample, previously diluted with a medium containing or not containing 3 ng/ml BMP-4/7 of heterodimer (described in EP-A-0626451) to each concentration shown in Table 2, was added to the cells reaching a confluent state, followed by cultivation for 72 hours. After each plate was once washed with saline, substrate solution was added, followed by incubation at room temperature for 15 minutes. The reaction was stopped by 0.05 N sodium hydroxide, and the absorbance at 405 nm was determined. The values obtained are given in mean±S.E. in Table 2. The data were statistically analyzed by Student's t-test.

[2] = test system: stromal cells prepared from the femoral marrow of a normal rat; experiment: Osteogenesis-promoting action: alkaline phosphatase activity in rat femoral marrow stromal cells; type: cell-based; conditions: mean±SE
Protocol: Using stromal cells prepared from the femoral marrow of a normal rat, alkaline phosphatase activity was determined as an index of osteogenesis. Specifically, stromal cells, prepared from the femoral marrow of a 7-week-old male Sprague-Dawley rat by the method of Maniatopoulos et al. [Cell Tissue Research, Vol. 254, p. 317 (1988)], were cultured in an α-MEM (minimum essential medium) solution containing both dexamethasone (10^−7 M) and β-glycerophosphoric acid (10^−2 M) to obtain calcified osteoid tissue. […] After washing with phosphate buffer, the cells were homogenized with 0.2% Nonidet P-40 and centrifuged at 3,000 rpm for 10 minutes. The resulting supernatant was assayed for alkaline phosphatase activity by the method of Lowry et al. [Journal of Biological Chemistry, Vol. 207, p. 19 (1954)]. The values obtained are given in mean±SE in Table 1. The data-were statistically analyzed by Student's t-test.

[3] = compound 10^−5 M, control 694.9 ± 22.7 (Experiment 1), 608.4 ± 20.9 (Experiment 2)
[4] = compound 10^−6 M, Experiment 3, control 63.1 ± 5.0

Row | Compound | melting point | other results
1 | CCOP(=O)(Cc1ccc(NC(=O)c2cc3c(s2)-c2c(SC)sc(C(=O)Nc4ccc(CP(=O)(OCC)OCC)cc4)c2CC3)cc1)OCC | 262 to 263 °C | 
2 | CCCSc1sc(C(=O)OCC)c2c1C(=O)C(NC(=O)CC)CC2 (stereo not shown) [Example 13, ethyl 4,5,6,7-tetrahydro-4-oxo-5-propionylamino-3-propylthiobenzo[c]thiophene-1-carboxylate] | 191 to 192 °C | 
3 | CSc1sc(C(=O)O)c2c1-c1nc(-c3ccccc3)sc1CC2 [Example 23, 4,5-dihydro-8-methylthio-2-phenylthieno[3,4-e]benzothiazole-6-carboxylic acid] | 255 to 256 °C (dec.) | 
4 | CCCSc1sc(C(=O)O)c2c1-c1nc(-c3ccccc3)sc1CC2 [Example 24, 4,5-dihydro-2-phenyl-8-propylthiothieno[3,4-e]benzothiazole-6-carboxylic acid] | 236 to 237 °C (dec.) | 
5 | CCCSc1sc(C(N)=O)c2c1-c1nc(-c3ccccc3)sc1CC2 [Example 37, 4,5-dihydro-2-phenyl-8-propylthiothieno[3,4-e]benzothiazole-6-carboxamide] | 203 to 204 °C | 
6 | CSc1sc(C(N)=O)c2c1-c1oc(C)nc1CC2 [Example 46] |  | Alkaline Phosphatase Activity (nmol p-nitrophenol/min/well) [2, 3]: 1,916.8 ± 26.3 nmol p-nitrophenol/min/well
7 | CCNC(=O)c1sc(SC)c2c1CCc1sc(-c3ccccc3)nc1-2 [Example 50, N-ethyl-4,5-dihydro-8-methylthio-2-phenylthieno[3,4-e]benzothiazole-6-carboxamide] | 211 to 212 °C | Alkaline Phosphatase Activity (nmol p-nitrophenol/min/well) [2, 3]: 1,463 ± 33.4 nmol p-nitrophenol/min/well
8 | CSc1sc(C(N)=O)c2c1-c1[nH]c(-c3ccccc3)nc1CC2 [Example 68, 4,5-dihydro-8-methylthio-2-phenylthieno[3,4-e]benzimidazole-6-carboxamide] | 206 to 207 °C | 
9 | CSc1sc(C(=O)O)c2c1-c1sc(-c3ccccc3)cc1CC2 [Example 75, 4,5-dihydro-8-methylthio-2-phenylbenzo[2,1-c:3,4-b′]dithiophene-6-carboxylic acid] | 215 to 217 °C | 
10 | CSc1sc(C(N)=O)c2c1-c1sc(-c3ccccc3)cc1CC2 [Example 76, 4,5-dihydro-8-methylthio-2-phenylbenzo[2,1-c:3,4-b′]dithiophene-6-carboxamide] | 192 to 193 °C | 
11 | CSc1sc(C(=O)NCc2ccc3c(c2)OCO3)c2c1-c1nc(-c3ccccc3)sc1CC2 [Example 90, N-(3,4-methylenedioxybenzyl)-4,5-dihydro-8-methylthio-2-phenylthieno[3,4-e]benzothiazole-6-carboxamide] | 236 to 237 °C | Alkaline Phosphatase Activity (nmol p-nitrophenol/min/well) [2, 4]: 102.9 ± 7.3 nmol p-nitrophenol/min/well
12 | CSc1sc(C(=O)NCc2ccncc2)c2c1-c1nc(-c3ccccc3)sc1CC2 [Example 91, N-(4-pyridylmethyl)-4,5-dihydro-8-methylthio-2-phenylthieno[3,4-e]benzothiazole-6-carboxamide] | 189 to 190 °C | Alkaline Phosphatase Activity (nmol p-nitrophenol/min/well) [2, 4]: 123.2 ± 5.7 nmol p-nitrophenol/min/well
13 | CSc1sc(C(=O)Nc2cccnc2)c2c1-c1nc(-c3ccccc3)sc1CC2 [Example 92, N-(3-pyridyl)-4,5-dihydro-8-methylthio-2-phenylthieno[3,4-e]benzothiazole-6-carboxamide] | 230 to 231 °C | Alkaline Phosphatase Activity (nmol p-nitrophenol/min/well) [2, 4]: 111.4 ± 2.1 nmol p-nitrophenol/min/well
14 | CON(C)C(=O)c1sc(SC)c2c1CCc1sc(-c3ccccc3)nc1-2 [Example 93, N-methoxy-N-methyl-4,5-dihydro-8-methylthio-2-phenylthieno[3,4-e]benzothiazole-6-carboxamide] | 157 to 158 °C | Alkaline Phosphatase Activity (nmol p-nitrophenol/min/well) [2, 4]: 159.9 ± 17.5 nmol p-nitrophenol/min/well

Now from value to compound, other results behind:

Row | melting point | Compound | other results
15 | 143 to 144 °C | CCOC(=O)c1sc(SC)c2c1CCc1sc(C)nc1-2 [Example 1, ethyl 4,5-dihydro-2-methyl-8-methylthiothieno[3,4-e]benzothiazole-6-carboxylate] | 
16 | 153 to 154 °C | CCOC(=O)c1sc(SC)c2c1CCc1sc(-c3ccccc3)nc1-2 [Example 2, ethyl 4,5-dihydro-8-methylthio-2-phenylthieno[3,4-e]benzothiazole-6-carboxylate] | 
17 | 125 to 126 °C | CCCSc1sc(C(=O)OCC)c2c1-c1nc(-c3ccccc3)sc1CC2 [Example 3, ethyl 4,5-dihydro-2-phenyl-8-propylthiothieno[3,4-e]benzothiazole-6-carboxylate] | 
18 | 170 to 171 °C | CCOC(=O)c1oc(SC)c2c1CCc1sc(-c3ccccc3)nc1-2 [Example 4, ethyl 4,5-dihydro-8-methylthio-2-phenylfuro[3,4-e]benzothiazole-6-carboxylate] | 
19 | 215 to 216 °C | CCOC(=O)c1sc(SC)c2c1CCC(NC(C)=O)C2=O (stereo not shown) [Example 11, ethyl 5-acetylamino-4,5,6,7-tetrahydro-3-methylthio-4-oxobenzo[c]thiophene-1-carboxylate] | 
20 | 170 to 171 °C | CCOC(=O)c1sc(SC(C)C)c2c1CCC(NC(C)=O)C2=O (stereo not shown) [Example 12, ethyl 5-acetylamino-4,5,6,7-tetrahydro-3-isopropylthio-4-oxobenzo[c]thiophene-1-carboxylate] | 
21 | 131 to 132 °C | CCOC(=O)c1sc(SC)c2c1CCc1nc(C)oc1-2 [Example 17, ethyl 4,5-dihydro-2-methyl-8-methylthiothieno[3,4-g]benzoxazole-6-carboxylate] | 
22 | 62 to 63 °C | CCOC(=O)c1sc(SC(C)C)c2c1CCc1nc(C)oc1-2 [Example 18, ethyl 4,5-dihydro-8-isopropylthio-2-methylthieno[3,4-g]benzoxazole-6-carboxylate] | 
23 | 218 to 219 °C | CCOC(=O)c1sc(SC)c2c1CCc1nc(-c3ccccc3)[nH]c1-2 [Example 21, ethyl 4,5-dihydro-8-methylthio-2-phenylthieno[3,4-e]benzimidazole-6-carboxylate] | 
24 | 273 to 274 °C | CSc1sc(C(=O)O)c2c1-c1nc(C)sc1CC2 [Example 22, 4,5-dihydro-2-methyl-8-methylthiothieno[3,4-e]benzothiazole-6-carboxylic acid] | 
25 | 277 to 278 °C | Cc1nc2c(o1)-c1c(SC(C)C)sc(C(=O)O)c1CC2 [Example 33, 4,5-dihydro-8-isopropylthio-2-methylthieno[3,4-g]benzoxazole-6-carboxylic acid] | 
26 | 269 to 270 °C | CSc1sc(C(N)=O)c2c1-c1nc(C)sc1CC2 [Example 36, 4,5-dihydro-2-methyl-8-methylthiothieno[3,4-e]benzothiazole-6-carboxamide] | Alkaline Phosphate Activity (A405 × 1,000), BMP Added (3 ng/ml) [1]: 618 ± 13 A405 × 1,000; Alkaline Phosphate Activity (A405 × 1,000), BMP Not Added [1]: 181 ± 6 A405 × 1,000
27 | 230 to 231 °C | Cc1nc2c(o1)-c1c(SC(C)C)sc(C(N)=O)c1CC2 [Example 47, 4,5-dihydro-8-isopropylthio-2-methylthieno[3,4-g]benzoxazole-6-carboxamide] | Alkaline Phosphate Activity (A405 × 1,000), BMP Added (3 ng/ml) [1]: 886 ± 35 A405 × 1,000; Alkaline Phosphate Activity (A405 × 1,000), BMP Not Added [1]: 202 ± 21 A405 × 1,000
28 | 175 to 176 °C | CCNC(=O)c1sc(SC)c2c1CCc1nc(C)oc1-2 [Example 55] | 
29 | 79 to 80 °C | CCOC(=O)c1sc(SC)c2c1CCC(C=O)=C2Cl [Example 69, ethyl 4-chloro-5-formyl-6,7-dihydro-3-methylthiobenzo[c]thiophene-1-carboxylate] | 
30 | 102 to 103 °C | CCOC(=O)CSC1=C(C=O)CCc2c(C(=O)OCC)sc(SC)c21 [Example 70, ethyl 4-ethoxycarbonylmethylthio-5-formyl-6,7-dihydro-3-methylthiobenzo[c]thiophene-1-carboxylate] | 
31 | 107 to 108 °C | CCOC(=O)c1cc2c(s1)-c1c(SC)sc(C(=O)OCC)c1CC2 [Example 71, diethyl 4,5-dihydro-8-methylthiobenzo[2,1-c:3,4-b′]dithiophene-2,6-dicarboxylate] | 
